PubChem BioAssay AID1645865 (Buhrlage Lab, Dana-Farber Cancer Institute and Novartis …, 2021)
The source made the active and inactive calls.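 How the source made its calls: active means maximal inhibition of the USP30 enzyme reaching 30% or more across the dose series; inactive means the rest.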

target: Ubiquitin carboxyl-terminal hydrolase 30 (Homo sapiens) (UniProt Q70CQ3); test: ubiquitin-specific protease 30 DUB inhibitors, concentration-effect, biochemical, validation of primary actives (AID 1645865); conditions: purified USP30, Ub-rhodamine cleavage, fluorescence, 2 h
Sequence (Q70CQ3 whole entry, looked up): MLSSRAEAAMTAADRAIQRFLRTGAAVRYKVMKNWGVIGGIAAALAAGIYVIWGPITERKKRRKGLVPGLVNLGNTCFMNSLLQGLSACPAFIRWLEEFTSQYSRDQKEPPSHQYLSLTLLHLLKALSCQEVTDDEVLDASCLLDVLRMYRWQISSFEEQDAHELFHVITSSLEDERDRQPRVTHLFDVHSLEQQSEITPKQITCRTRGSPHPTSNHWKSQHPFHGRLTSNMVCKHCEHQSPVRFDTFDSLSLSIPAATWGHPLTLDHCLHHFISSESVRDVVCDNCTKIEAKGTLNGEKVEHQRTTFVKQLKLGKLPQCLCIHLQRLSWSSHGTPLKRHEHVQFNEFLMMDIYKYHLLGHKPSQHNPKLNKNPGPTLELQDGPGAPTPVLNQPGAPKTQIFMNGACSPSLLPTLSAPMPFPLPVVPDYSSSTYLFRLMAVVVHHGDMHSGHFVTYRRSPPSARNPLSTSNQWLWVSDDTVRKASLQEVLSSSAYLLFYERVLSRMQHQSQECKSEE

| SMILES | IC50 |
| --- | --- |
| O=C(Nc1ccc(NS(=O)(=O)c2ccc3c4c(cccc24)CC3)cc1)c1ccccc1 | > 50 µM (inactive) |
| COc1cccc(N2C(=O)N(CC(=O)NCc3ccc(Cl)cc3)c3ccccc3S2(=O)=O)c1 | 17 µM |
| CC(=O)[C@H]1c2c(c(O)c3c(O)cccc3c2-c2c3c(c(O)c4c(O)cccc24)C(=O)C[C@](C)(O)[C@H]3C(C)=O)C(=O)C[C@]1(C)O | > 50 µM (inactive) |
| Cc1ccc2[nH]c3c(=O)n(CC4CCCO4)cnc3c2c1 (centres undefined) | 17.9 µM |
| Cc1ccc(Cn2nnc(C(=O)NCc3ccco3)c2-n2cccc2)cc1 | > 50 µM (inactive) |
| COc1ccc(C)cc1NC(=O)CSc1nc(C)nc2c1oc1ccccc12 | 17.9 µM |
| CS(=O)(=O)N1CCCc2cc(C(=O)Nc3ccc4c(c3)OCO4)ccc21 | > 50 µM (inactive) |
| N#Cc1ccc(Cn2nnc(-c3cccc(Cl)c3)n2)cc1 | > 50 µM (inactive) |
| CC1CCc2c(sc3ncnc(OCc4cccc([N+](=O)[O-])c4)c23)C1 (centres undefined) | > 50 µM (inactive) |
| Cc1ccc(Cn2c(=O)c3ccccc3n3c(CCC(=O)N4CCN(c5ccccn5)CC4)nnc23)cc1 | 3.41 µM |
| O=C(Cn1cncc(C(=O)NC2CCCC2)c1=O)Nc1cccc(F)c1 | 19.3 µM |
| Cc1ccc2nc(NC(=O)CSc3nnc(-c4ccncc4)n3C3CC3)sc2c1 | 2.81 µM |
| COc1cccc2cccc(O)c12 | > 50 µM (inactive) |
| COc1ccc(NC(=O)C2[C@@H]3C(=O)N(C4CCCCC4)C(=O)[C@@H]3[C@H]3c4ccccc4C=CN23)cc1 (some centres undefined) | > 50 µM (inactive) |
| Cc1cccc(COc2ccc(C3SCC(=O)Nc4n[nH]c(C)c43)cc2)c1 (centres undefined) | 8.16 µM |
| COC(=O)c1sccc1NC(=O)COc1ccsc1C(=O)OC | 27.9 µM |
| CC(C)(C)n1ncc2c(=O)n(Cc3cccc([N+](=O)[O-])c3)cnc21 | > 50 µM (inactive) |
| O=C(NCc1ccc(Br)cc1)c1ccc(-c2cccnc2)nc1 | 30.3 µM |
| COc1cccc(NC(=O)C2C3C=CC4(O3)C2C(=O)N(CCc2ccccc2Cl)C4C(=O)NC2CCCCC2)c1 (centres undefined) | 41.2 µM |
| CC(=O)Nc1ccc(NC(=O)c2cc(-c3cc(C)cc(C)c3O)n[nH]2)cc1 | 12 µM |
| Cc1nn(-c2nc3ccccc3[nH]2)c2c1C(c1cccs1)CC(=O)N2 (centres undefined) | > 50 µM (inactive) |
| COc1ccc(C2SCC(=O)Nc3c2c(=O)[nH]n3C2CCCCC2)cc1 (centres undefined) | 30.1 µM |
| COc1c(C)c(C(O)C(C)O)c2[nH]c3ccc(CC=C(C)C)cc3c2c1O (centres undefined) | 27.4 µM |
| CC(C)OC(=O)c1cc2c(ccn2-c2ccc(F)cc2)n1CC(=O)NC1CCCCC1 | > 50 µM (inactive) |

| SMILES | IC50 |
| --- | --- |
| CCn1c(=O)c2ccccc2n(Cc2nc(-c3ccccc3OC)no2)c1=O | > 50 µM (inactive) |
| O=C(NCc1ccc2c(c1)OCO2)c1nc(-c2ccccc2)n(-c2ccccc2)n1 | > 50 µM (inactive) |
| NS(=O)(=O)c1ccc(Cl)c(C(=O)OCc2csc(Nc3ccccc3)n2)c1 | > 50 µM (inactive) |
| O=C(COc1nsnc1N1CCOCC1)Nc1ccc(F)c(F)c1 | > 50 µM (inactive) |
| O=C(Nc1ccc(Cl)cc1)Nc1cccn2ncnc12 | 18.7 µM |
| Cc1nn(Cc2ccccc2)c2sc(C(=O)Nc3nc4ccccc4[nH]3)cc12 | 19.4 µM |
| CCn1cc(-c2cc(C(=O)Nc3cnn(Cc4cccc(F)c4)c3)c3ccccc3n2)cn1 | 49.2 µM |
| CCc1nc2cc(NC(=O)c3cccc(N4CCCC4=O)c3)ccc2n1C | > 50 µM (inactive) |
| CCOC(=O)CSc1nnc(-c2cnn(-c3ccccc3)c2N)o1 | 18.2 µM |
| Cc1ccccc1NC(=O)C(C)n1c(=O)cc(-c2ccccc2)c2c(C)nn(C)c21 (centres undefined) | 2.45 µM |
| Cc1ccn(-c2ccc(NC(=O)c3ccccc3Sc3ccccc3C#N)cc2)n1 | 34.9 µM |
| CCOc1ccc(NC(=O)Cn2c(=O)n(CCCCCC(=O)NCc3ccc(F)cc3)c(=O)c3sccc32)cc1 | 1.44 µM |
| Cn1c(=O)c2cc(C(=O)Nc3ccc(F)cc3)cnc2n(C)c1=O | 25.8 µM |
| Cc1ccc(C(=O)Nc2cc3c4c(c2)CC(=O)N4CCC3)cc1C | > 50 µM (inactive) |
| CC1=C(c2ccc(Cl)cc2)S(=O)(=O)NC1=NCC(=O)Nc1ccc(F)cc1 | 17 µM |
| CNC(=O)C1CN(C(=O)c2ccc(OC)cc2)CC12CCCC2 (centres undefined) | > 50 µM (inactive) |
| CC(C)=CCC/C(C)=C/C[C@]1(O)C(=O)c2cc(O)cc(O)c2C(=O)[C@@]1(Cl)CC=C(C)C | > 50 µM (inactive) |
| COc1ccc(-c2cc(-c3ccccc3)nc(SCC(N)=O)c2C#N)cc1OC | 1.59 µM |
| Clc1ccccc1CSc1nnc(C2CCCCC2)n1Cc1ccccc1 | 21.5 µM |
| Cc1nn(-c2cccc(F)c2)c2c1C(C(=O)c1ccc(Cl)s1)CC(=O)N2 (centres undefined) | 32.5 µM |
| Cc1nn(-c2cccc(F)c2)c2c1c(C)c(CCC(=O)NCc1ccccn1)c(=O)n2C | 3.22 µM |
| Cc1nn(C)c2c1[C@@H](c1ccc(F)cc1)[C@H](NC(=O)c1ccccc1)C(=O)N2 | > 50 µM (inactive) |
| O=C(CCCCn1c(=O)c2ccccc2n(Cc2ccccc2F)c1=O)NCCc1ccccc1 | 8.13 µM |
| COc1ccc(-n2c(=O)c(CCC(=O)O)nc3ccccc32)cc1 | > 50 µM (inactive) |

| SMILES | IC50 |
| --- | --- |
| COc1ccc(CN2CCCC23CCCN(C(=O)CCc2cccnc2)C3)cc1F (centres undefined) | 33.1 µM |
| Cc1ccccc1NC(=O)c1ccn(COc2ccc(Cl)cc2)n1 | > 50 µM (inactive) |
| O=C1C[C@@H]2O[C@H](CNC(=O)[C@@H]3CN(CCN3C(=O)C3CCOCC3)C(=O)[C@@H]3C[C@@H](CN3Cc3ccc(F)c(F)c3)N1)[C@@H](O)[C@H]2O | > 50 µM (inactive) |
| Cc1ncc(CO)c2c1Oc1nc(-c3cccc(Cl)c3)nc(SCC(=O)N3CCCCC3)c1C2 | > 50 µM (inactive) |
| Cc1ccccc1-c1nc(CN(C)S(=O)(=O)c2ccccc2)c(C)o1 | 35.8 µM |
| Cc1ccnc(NC(=O)c2ccn(COc3ccc(Cl)cc3)n2)c1 | 22.8 µM |
| Cc1ccc2c(=O)c3c([nH]c2c1C)CCN(CC(=O)NCc1ccc2c(c1)OCO2)C3 | > 50 µM (inactive) |
| C=C(NC(=O)C(=C)NC(=O)c1csc(C2=N[C@@H]3c4csc(n4)[C@H]4NC(=O)c5csc(n5)[C@H]([C@](C)(O)[C@@H](C)O)NC(=O)C5CSC(=N5)/C(=C/C)NC(=O)C([C@@H](C)O)NC(=O)c5csc(n5)[C@]3(CC2)NC(=O)[C@H](C)NC(=O)C(=C)NC(=O)[C@H](C)NC(=O)C([C@@H](C)CC)NC2C=Cc3c(C(C)O)cc(nc3[C@H]2O)C(=O)OC4C)n1)C(N)=O (some centres undefined) | > 50 µM (inactive) |
| CN1CCN(c2ncnc3c2oc2ccc(Cl)cc23)CC1 | > 50 µM (inactive) |
| Cc1ccccc1NC(=O)Cn1c(N2CCOCC2)nc2cc(C)n(C)c2c1=O | 17.9 µM |
| COc1cccc(OCCCn2c(C(C)NC(=O)c3ccco3)nc3ccccc32)c1 (centres undefined) | 34.8 µM |
| O=C(COc1ccc2c(-c3ccccc3)cc(=O)oc2c1)Nc1cccnc1 | 1.3 µM |
| O=C(CN1CCCCC1)Nc1nnc(-c2ccc([N+](=O)[O-])cc2)s1 | 22.5 µM |
| CCn1cc(NC(=O)CN2CCC3(CC=CCOC3)CC2)c(C)n1 | > 50 µM (inactive) |
| CCOc1ccc2c(c1)c(=O)c(C(=O)c1ccccc1)cn2CC(=O)Nc1ccc2c(c1)OCCO2 | 21.2 µM |
| Cc1ccc(NC(=O)c2nnn(-c3ccccc3Br)c2C)cc1C | > 50 µM (inactive) |
| COc1ccc(-c2cc3nc(C)cc(Nc4ccc(F)cc4)n3n2)cc1OC | > 50 µM (inactive) |
| COc1ccc(NC(=O)c2[nH]nc3c2COc2ccccc2-3)c(OC)c1 | 3.47 µM |
| Cc1ccccc1NC(=O)Cn1cc(-c2nc(C3CC3)no2)ccc1=O | > 50 µM (inactive) |
| Fc1cccc(-n2cc(-c3noc(-c4ccc[nH]4)n3)nn2)c1 | > 50 µM (inactive) |
| COc1ncccc1CN1CCn2c(Cn3cncn3)cnc2C1C (centres undefined) | > 50 µM (inactive) |
| Cc1c(OCC(=O)Nc2nc3ccccc3[nH]2)ccc2c3c(c(=O)oc12)CCC3 | 0.148 µM |
| Cc1cc(C)c2sc(N(CCCn3ccnc3)C(=O)Cc3ccccc3)nc2c1 | 17.5 µM |
| COc1ccc(CCNC(=O)c2c(N)n(-c3cccc(Cl)c3)c3nc4ccccc4nc23)cc1 | > 50 µM (inactive) |

| SMILES | IC50 |
| --- | --- |
| Cc1nc(-c2ccc(C(=O)NCc3ccc(F)cc3)cc2)cs1 | 38.3 µM |
| O=C(NCCN1CCCC1)C1CCN(c2cnc(N3CCCCC3)nc2)CC1 | > 50 µM (inactive) |
| CCn1c(SCc2nc(N)c3ccccc3n2)nc2ccccc21 | > 50 µM (inactive) |
| O=C(NCC(c1cccnc1)N1CCc2ccccc2C1)C(=O)Nc1ccc2c(c1)OCO2 (centres undefined) | 33.3 µM |
| Cc1c(-c2nnc(-c3ccccn3)o2)nnn1-c1cccc(Cl)c1 | 44.4 µM |
| CCOC(=O)c1c(C)nc2n(Cc3ccccc3)c3ccccc3n12 | 17.9 µM |
| Cc1ccc(-c2nc(N3CCCC(O)C3)ncc2-c2cnccn2)s1 (centres undefined) | > 50 µM (inactive) |
| CCOC(=O)c1ccc(-n2c(=O)c(C#N)cc3c(=O)n4ccccc4nc32)cc1 | > 50 µM (inactive) |
| O=C(CN1C(=O)NC2(CCCCC2)C1=O)Nc1ccc([N+](=O)[O-])cc1 | 33.5 µM |
| O=C(NCc1ccc2c(c1)OCO2)c1nnc(Cc2ccc(F)cc2)o1 | 44.2 µM |
| O=C(Cn1c(=O)n(CCC(=O)N2CC=C(c3ccccc3)CC2)c(=O)c2ccccc21)NCc1ccco1 | > 50 µM (inactive) |
| CC(C)(C)C(=O)NC(c1ccccc1)c1nnc(N2CCOCC2)o1 (centres undefined) | > 50 µM (inactive) |
| Cc1cccc(C(=O)N2CCc3cc(-c4nc(NC(=O)CN5CCc6ccccc6C5)sc4C)ccc32)c1 | > 50 µM (inactive) |
| Cc1ccc(-n2c(-c3ccccc3)cn3c4c(=O)[nH]c(=O)n(C)c4nc23)cc1Cl | 0.222 µM |
| CCOC(=O)Nc1ccc(N2CCn3c(nc4ccccc43)C2)cc1OC | > 50 µM (inactive) |
| CCn1ccc2c(cc(C(=O)Nc3cccc(OC)c3)n2C)c1=O | > 50 µM (inactive) |
| CCOc1ccc(NC(=O)Cn2c(=O)n(CCC(=O)NCc3ccco3)c(=O)c3ccccc32)cc1 | 4.08 µM |
| COc1ccccc1NC(=O)c1cc2c(C)nn(Cc3ccccc3)c2s1 | 28.9 µM |
| Cc1ccccc1NC(=O)Nc1ccccc1OCc1cc(=O)n2cccc(C)c2n1 | 0.687 µM |
| CO[C@H]1CC[C@H](O)c2c1oc1c3c4c(c(O)c1c2=O)-c1c(cc2c(Cl)c(C)n(N)c(=O)c2c1O)C[C@@H]4OCO3 | 47.3 µM |
| COc1ccc(NC(=O)c2nnn(-c3cccc(C)c3)c2C)cc1 | > 50 µM (inactive) |
| COc1ccc(C2CC(c3ccccc3)N(C(=O)C3CC3)c3ncnn32)cc1 (centres undefined) | > 50 µM (inactive) |
